Test results as given in the NIST ThermoML archive (doi:10.1016/j.jct.2007.09.009).
Several values for one entry are separate records, joined by “and”; a condition that tells them apart may be missing. Equal entries are not always repeated.

Experiment: xn = mol fraction of the nth substance listed
Settings: 313.15 K, 101 kPa, Liquid, Direct dilatometry

CC(=O)N(C)C [N,N-dimethylethanamide] + O
Settings | excess molar volume
x1 = 0.0092 | -3.79e-08 m3/mol
x1 = 0.0196 | -8.59e-08 m3/mol
x1 = 0.03 | -1.402e-07 m3/mol
x1 = 0.0556 | -2.881e-07 m3/mol
x1 = 0.0704 | -3.778e-07 m3/mol
x1 = 0.0823 | -4.496e-07 m3/mol
x1 = 0.0853 | -4.67e-07 m3/mol
x1 = 0.091 | -4.98e-07 m3/mol
x1 = 0.0968 | -5.344e-07 m3/mol
x1 = 0.0981 | -5.428e-07 m3/mol
x1 = 0.1063 | -5.918e-07 m3/mol
x1 = 0.1088 | -6.146e-07 m3/mol
x1 = 0.1167 | -6.527e-07 m3/mol
x1 = 0.1258 | -7.063e-07 m3/mol
x1 = 0.1364 | -7.653e-07 m3/mol
x1 = 0.1478 | -8.283e-07 m3/mol
x1 = 0.1603 | -8.946e-07 m3/mol
x1 = 0.1651 | -9.21e-07 m3/mol
x1 = 0.1728 | -9.553e-07 m3/mol and -9.577e-07 m3/mol
x1 = 0.1851 | -1.017e-06 m3/mol
x1 = 0.1902 | -1.039e-06 m3/mol
x1 = 0.2039 | -1.098e-06 m3/mol
x1 = 0.2221 | -1.172e-06 m3/mol
x1 = 0.2379 | -1.229e-06 m3/mol
x1 = 0.2514 | -1.273e-06 m3/mol
x1 = 0.2642 | -1.315e-06 m3/mol
x1 = 0.2665 | -1.318e-06 m3/mol
x1 = 0.2718 | -1.334e-06 m3/mol
x1 = 0.2773 | -1.349e-06 m3/mol
x1 = 0.2787 | -1.35e-06 m3/mol
x1 = 0.2883 | -1.374e-06 m3/mol
x1 = 0.2987 | -1.397e-06 m3/mol
x1 = 0.31 | -1.418e-06 m3/mol
x1 = 0.3216 | -1.44e-06 m3/mol
x1 = 0.3377 | -1.463e-06 m3/mol
x1 = 0.352 | -1.479e-06 m3/mol
x1 = 0.3679 | -1.493e-06 m3/mol
x1 = 0.3759 | -1.501e-06 m3/mol
x1 = 0.3782 | -1.499e-06 m3/mol
x1 = 0.3812 | -1.502e-06 m3/mol
x1 = 0.3884 | -1.506e-06 m3/mol
x1 = 0.3918 | -1.505e-06 m3/mol
x1 = 0.3948 | -1.508e-06 m3/mol
x1 = 0.4047 | -1.511e-06 m3/mol
x1 = 0.4141 | -1.511e-06 m3/mol
x1 = 0.4248 | -1.511e-06 m3/mol
x1 = 0.4402 | -1.507e-06 m3/mol
x1 = 0.4583 | -1.497e-06 m3/mol
x1 = 0.47 | -1.489e-06 m3/mol
x1 = 0.4759 | -1.487e-06 m3/mol
x1 = 0.4881 | -1.473e-06 m3/mol
x1 = 0.4976 | -1.464e-06 m3/mol
x1 = 0.5257 | -1.43e-06 m3/mol
x1 = 0.5546 | -1.38e-06 m3/mol
x1 = 0.5961 | -1.295e-06 m3/mol
x1 = 0.6483 | -1.173e-06 m3/mol
x1 = 0.6819 | -1.082e-06 m3/mol
x1 = 0.7273 | -9.449e-07 m3/mol
x1 = 0.732 | -9.375e-07 m3/mol
x1 = 0.755 | -8.613e-07 m3/mol
x1 = 0.7743 | -8.015e-07 m3/mol
x1 = 0.7939 | -7.378e-07 m3/mol
x1 = 0.8089 | -6.896e-07 m3/mol
x1 = 0.8158 | -6.653e-07 m3/mol
x1 = 0.8331 | -6.07e-07 m3/mol
x1 = 0.8622 | -5.075e-07 m3/mol
x1 = 0.8823 | -4.342e-07 m3/mol
x1 = 0.884 | -4.256e-07 m3/mol
x1 = 0.9064 | -3.494e-07 m3/mol
x1 = 0.9258 | -2.754e-07 m3/mol
x1 = 0.9539 | -1.863e-07 m3/mol
x1 = 0.9568 | -1.596e-07 m3/mol
x1 = 0.9716 | -1.062e-07 m3/mol
